From patent US20170037028A1 (BAYER PHARMA AKTIENGESELLSCHAFT, priority 2013, published 2017)

Each molecule was assayed against T1, GLUT1 (Homo sapiens, UniProt P11166) (assay: Indirect measurement of GLUT1 activity by quantification of intracellular ATP levels (glucose induced ATP increase)). Conditions: read-out: IC50 regarding glucose induced ATP increase (GLUT1 inhibition).
T1 sequence (P11166 1-492): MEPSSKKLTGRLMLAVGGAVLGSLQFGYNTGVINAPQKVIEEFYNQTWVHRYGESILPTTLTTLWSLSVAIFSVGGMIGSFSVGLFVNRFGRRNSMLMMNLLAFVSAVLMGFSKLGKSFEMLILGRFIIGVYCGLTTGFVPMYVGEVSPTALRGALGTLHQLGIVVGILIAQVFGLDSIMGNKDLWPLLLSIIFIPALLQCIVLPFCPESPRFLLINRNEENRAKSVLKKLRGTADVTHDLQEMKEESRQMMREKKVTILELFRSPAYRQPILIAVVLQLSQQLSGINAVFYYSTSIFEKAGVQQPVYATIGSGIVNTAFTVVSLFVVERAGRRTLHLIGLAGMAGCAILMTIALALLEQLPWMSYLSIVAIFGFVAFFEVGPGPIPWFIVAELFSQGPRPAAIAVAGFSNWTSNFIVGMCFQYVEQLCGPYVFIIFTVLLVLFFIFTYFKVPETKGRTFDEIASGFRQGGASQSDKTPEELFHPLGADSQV
Assay type: cell-based
Set-up: endogenous in cells; host or cells: DLD1 or CHO-K1
How it was run: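 Intracellular ATP was measured by CellTiter-Glo luminescence as an indirect readout of transport: glucose-driven for GLUT1, fructose-driven for GLUT2. DLD1 or CHO-K1 cells were used alongside an oxidative phosphorylation inhibitor. Beforehand, cells were held overnight in glucose-free 1% FCS medium to deplete ATP.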

SMILES | IC50
COc1cc(C(=O)Nc2c(C)nn(Cc3ccccc3)c2C)c2ccccc2n1 [Example 65, N-(1-benzyl-3,5-dimethyl-1H-pyrazol-4-yl)-2-methoxyquinoline-4-carboxamide] | 133 nM
Cc1nn(Cc2ccccc2C#N)c(C)c1NC(=O)c1cc(C(F)(F)F)nc2c(Cl)cc(Cl)cc12 [Example 68, 6,8-dichloro-N-[1-(2-cyanobenzyl)-3,5-dimethyl-1H-pyrazol-4-yl]-2-(trifluoromethyl)quinoline-4-carboxamide] | 148 nM
CCc1cc(C(=O)Nc2c(C)nn(Cc3ccc(F)cc3)c2C)c2ccccc2n1 [Example 69, 2-ethyl-N-[1-(4-fluorobenzyl)-3,5-dimethyl-1H-pyrazol-4-yl]quinoline-4-carboxamide] | 164 nM
Cc1nn(Cc2ccccn2)c(C)c1NC(=O)c1cc(C(F)(F)F)nc2ccc(Br)cc12 [Example 70, 6-bromo-N-[3,5-dimethyl-1-(pyridin-2-ylmethyl)-1H-pyrazol-4-yl]-2-(trifluoromethyl)quinoline-4-carboxamide] | 173 nM
Cc1nn(Cc2cccc(C#N)c2)c(C)c1NC(=O)c1cc(C(F)(F)F)nc2ccc(Br)cc12 [Example 71, 6-bromo-N-[1-(3-cyanobenzyl)-3,5-dimethyl-1H-pyrazol-4-yl]-2-(trifluoromethyl)quinoline-4-carboxamide] | 175 nM
Cc1ccc2nc(C)cc(C(=O)Nc3c(C(F)(F)F)nn(Cc4ccc(F)cc4)c3C)c2c1 [Example 73, N-[1-(4-fluorobenzyl)-5-methyl-3-(trifluoromethyl)-1H-pyrazol-4-yl]-2,6-dimethylquinoline-4-carboxamide] | 177 nM
COc1ccc2nc(O)cc(C(=O)Nc3c(C)nn(Cc4ccc(F)cc4)c3C)c2c1 [Example 75, N-[1-(4-fluorobenzyl)-3,5-dimethyl-1H-pyrazol-4-yl]-2-hydroxy-6-methoxyquinoline-4-carboxamide] | 182 nM
COc1cc(C(=O)Nc2c(C)nn(Cc3ccccc3F)c2C)c2ccccc2n1 [Example 77, N-[1-(2-fluorobenzyl)-3,5-dimethyl-1H-pyrazol-4-yl]-2-methoxyquinoline-4-carboxamide] | 204 nM
Cc1nn(Cc2ccc(F)cc2)c(C)c1NC(=O)c1cc(C#N)nc2ccccc12 [Example 78, 2-cyano-N-[1-(4-fluorobenzyl)-3,5-dimethyl-1H-pyrazol-4-yl]quinoline-4-carboxamide] | 223 nM
Cc1nn(Cc2ccc(F)cc2)c(C)c1NC(=O)c1cc(C2CC2)nc2ccc(C(F)(F)F)cc12 [Example 79, 2-cyclopropyl-N-[1-(4-fluorobenzyl)-3,5-dimethyl-1H-pyrazol-4-yl]-6-(trifluoromethyl)quinoline-4-carboxamide] | 225 nM
COc1cc(C(=O)Nc2c(C)nn(Cc3ccccc3C#N)c2C)c2ccccc2n1 [Example 80, N-[1-(2-cyanobenzyl)-3,5-dimethyl-1H-pyrazol-4-yl]-2-methoxyquinoline-4-carboxamide] | 229 nM
Cc1cccnc1Cn1nc(C)c(NC(=O)c2cc(C(F)(F)F)nc3c(Cl)cc(Cl)cc23)c1C [Example 82, 6,8-dichloro-N-{3,5-dimethyl-1-[(3-methylpyridin-2-yl)methyl]-1H-pyrazol-4-yl}-2-(trifluoromethyl)quinoline-4-carboxamide] | 250 nM
Cc1nn(Cc2ccccc2OC(F)(F)F)c(C)c1NC(=O)c1cc(C(F)(F)F)nc2ccc(Br)cc12 [Example 83, 6-bromo-N-{3,5-dimethyl-1-[2-(trifluoromethoxy)benzyl]-1H-pyrazol-4-yl}-2-(trifluoromethyl)quinoline-4-carboxamide] | 250 nM
Cc1nn(Cc2ccc(F)cc2)c(C)c1NC(=O)c1cc(C(F)(F)F)nc2c(F)cccc12 [Example 85, 8-fluoro-N-[1-(4-fluorobenzyl)-3,5-dimethyl-1H-pyrazol-4-yl]-2-(trifluoromethyl)quinoline-4-carboxamide] | 257 nM
COc1cc(C(=O)Nc2c(C)nn(Cc3cccc(F)c3)c2C)c2ccccc2n1 [Example 87, N-[1-(3-fluorobenzyl)-3,5-dimethyl-1H-pyrazol-4-yl]-2-methoxyquinoline-4-carboxamide] | 267 nM
Cc1ccccc1Cn1nc(C)c(NC(=O)c2cc(C(F)(F)F)nc3c(Cl)cc(Cl)cc23)c1C [Example 89, 6,8-dichloro-N-[3,5-dimethyl-1-(2-methylbenzyl)-1H-pyrazol-4-yl]-2-(trifluoromethyl)quinoline-4-carboxamide] | 281 nM
Cc1cc(C(=O)Nc2c(C)nn(Cc3ccc(F)cc3)c2C)c2cc(F)ccc2n1 [Example 90, 6-fluoro-N-[1-(4-fluorobenzyl)-3,5-dimethyl-1H-pyrazol-4-yl]-2-methylquinoline-4-carboxamide] | 291 nM
Cc1ccc2nc(C)cc(C(=O)Nc3c(C)nn(Cc4ccccc4)c3C)c2c1 [Example 92, N-(1-benzyl-3,5-dimethyl-1H-pyrazol-4-yl)-2,6-dimethylquinoline-4-carboxamide] | 292 nM
Cc1nn(Cc2cccc(OC(F)(F)F)c2)c(C)c1NC(=O)c1cc(C(F)(F)F)nc2c(Cl)cc(Cl)cc12 [Example 93, 6,8-dichloro-N-{3,5-dimethyl-1-[3-(trifluoromethoxy)benzyl]-1H-pyrazol-4-yl}-2-(trifluoromethyl)quinoline-4-carboxamide] | 292 nM
COc1cccc(Cn2nc(C)c(NC(=O)c3cc(C(F)(F)F)nc4ccc(Br)cc34)c2C)c1 [Example 97, 6-bromo-N-[1-(3-methoxybenzyl)-3,5-dimethyl-1H-pyrazol-4-yl]-2-(trifluoromethyl)quinoline-4-carboxamide] | 354 nM

Further molecules by falling IC50, results first:

IC50 | SMILES
344 nM | Cc1ccc2nc(C)cc(C(=O)Nc3c(C)nn(Cc4ccc(F)cc4F)c3C)c2c1 [Example 96, N-[1-(2,4-difluorobenzyl)-3,5-dimethyl-1H-pyrazol-4-yl]-2,6-dimethylquinoline-4-carboxamide]
309 nM | COc1c(C)nc2ccccc2c1C(=O)Nc1c(C)nn(Cc2ccc(F)cc2)c1C [Example 95, N-[1-(4-fluorobenzyl)-3,5-dimethyl-1H-pyrazol-4-yl]-3-methoxy-2-methylquinoline-4-carboxamide]
304 nM | Cc1nn(Cc2ccccc2F)c(C)c1NC(=O)c1cc(C(F)(F)F)nc2c(Cl)cc(Cl)cc12 [Example 94, 6,8-dichloro-N-[1-(2-fluorobenzyl)-3,5-dimethyl-1H-pyrazol-4-yl]-2-(trifluoromethyl)quinoline-4-carboxamide]
292 nM | Cc1nn(Cc2cccc(C#N)c2)c(C)c1NC(=O)c1cc(C(F)(F)F)nc2c(Cl)cc(Cl)cc12 [Example 91, 6,8-dichloro-N-[1-(3-cyanobenzyl)-3,5-dimethyl-1H-pyrazol-4-yl]-2-(trifluoromethyl)quinoline-4-carboxamide]
281 nM | Cc1nn(Cc2ccc(F)cc2)c(C)c1NC(=O)c1cc(C(F)(F)F)nc2cc(Br)ccc12 [Example 88, 7-bromo-N-[1-(4-fluorobenzyl)-3,5-dimethyl-1H-pyrazol-4-yl]-2-(trifluoromethyl)quinoline-4-carboxamide]
257 nM | Cc1cc(C(=O)Nc2c(C)nn(Cc3ccc(F)cc3)c2C)c2cccc(C)c2n1 [Example 86, N-[1-(4-fluorobenzyl)-3,5-dimethyl-1H-pyrazol-4-yl]-2,8-dimethylquinoline-4-carboxamide]
255 nM | Cc1ccc2nc(C)cc(C(=O)Nc3c(C)nn(Cc4c(F)cccc4F)c3C)c2c1 [Example 84, N-[1-(2,6-difluorobenzyl)-3,5-dimethyl-1H-pyrazol-4-yl]-2,6-dimethylquinoline-4-carboxamide]
229 nM | COc1cccc(Cn2nc(C)c(NC(=O)c3cc(OC)nc4ccccc34)c2C)c1 [Example 81, 2-methoxy-N-[1-(3-methoxybenzyl)-3,5-dimethyl-1H-pyrazol-4-yl]quinoline-4-carboxamide]
188 nM | COc1cc(C(=O)Nc2c(C)nn(Cc3cccc(C)c3)c2C)c2ccccc2n1 [Example 76, N-[3,5-dimethyl-1-(3-methylbenzyl)-1H-pyrazol-4-yl]-2-methoxyquinoline-4-carboxamide]
181 nM | Cc1nn(Cc2ccccc2F)c(C)c1NC(=O)c1cc(C(F)(F)F)nc2ccc(Br)cc12 [Example 74, 6-bromo-N-[1-(2-fluorobenzyl)-3,5-dimethyl-1H-pyrazol-4-yl]-2-(trifluoromethyl)quinoline-4-carboxamide]
177 nM | Cc1nn(Cc2cccc(F)c2)c(C)c1NC(=O)c1cc(C(F)(F)F)nc2ccc(Br)cc12 [Example 72, 6-bromo-N-[1-(3-fluorobenzyl)-3,5-dimethyl-1H-pyrazol-4-yl]-2-(trifluoromethyl)quinoline-4-carboxamide]
146 nM | COc1cccc(Cn2nc(C)c(NC(=O)c3cc(C(F)(F)F)nc4c(Cl)cc(Cl)cc34)c2C)c1 [Example 67, 6,8-dichloro-N-[1-(3-methoxybenzyl)-3,5-dimethyl-1H-pyrazol-4-yl]-2-(trifluoromethyl)quinoline-4-carboxamide]
135 nM | Cc1nn(Cc2ccccn2)c(C)c1NC(=O)c1cc(C(F)(F)F)nc2c(Cl)cc(Cl)cc12 [Example 66, 6,8-dichloro-N-[3,5-dimethyl-1-(pyridin-2-ylmethyl)-1H-pyrazol-4-yl]-2-(trifluoromethyl)quinoline-4-carboxamide]
